Test results: PMC5218480 (PLoS ONE, 2017)

System: MV-4-11 cells
Experiment: Gene expression microarray analysis (Affymetrix PrimeView) and GSEA
Assay type: cell-based, human
Design: RFU PODN (11730768_x_at) / Fold change /veh PODN (11730768_x_at) / RFU LINC00158 (11744669_a_at) / Fold change /veh LINC00158 (11744669_a_at) / RFU DUSP10 (11751237_a_at) / Fold change /veh DUSP10 (11751237_a_at) / RFU ID3 (11757404_x_at) / Fold change /veh ID3 (11757404_x_at) / RFU PLEKHG5 (11737974_s_at) / Fold change /veh PLEKHG5 (11737974_s_at) / RFU LRRC4B (11730491_at) / Fold change /veh LRRC4B (11730491_at) / RFU GIMAP4 (11747438_a_at) / Fold change /veh GIMAP4 (11747438_a_at) / RFU KRT8 (11758183_x_at) / Fold change /veh KRT8 (11758183_x_at) / RFU CNN1 (11734310_a_at) / Fold change /veh CNN1 (11734310_a_at) / RFU VPS37D (11726825_at) / Fold change /veh VPS37D (11726825_at) / RFU C10orf10 (11716522_x_at) / Fold change /veh C10orf10 (11716522_x_at) / RFU KIR2DL2 /// KIR2DL4 /// KIR2DL5A /// KIR2DL5B /// KIR2DS1 /// KIR2DS2 /// KIR2DS3 /// KIR2DS4 /// KIR3DL3 /// KIR3DL3 /// KIR3DS1 (11738374_at) / Fold change /veh KIR2DL2 /// KIR2DL4 /// KIR2DL5A /// KIR2DL5B /// KIR2DS1 /// KIR2DS2 /// KIR2DS3 /// KIR2DS4 /// KIR3DL3 /// KIR3DL3 /// KIR3DS1 (11738374_at) / RFU C1QL1 (11718748_at) / Fold change /veh C1QL1 (11718748_at) / RFU TMPRSS4 (11747572_a_at) / Fold change /veh TMPRSS4 (11747572_a_at) / RFU HAMP (11756126_x_at) / Fold change /veh HAMP (11756126_x_at) / RFU RNFT2 (11725882_a_at) / Fold change /veh RNFT2 (11725882_a_at) / RFU NR4A2 (11747474_a_at) / Fold change /veh NR4A2 (11747474_a_at) / RFU ABCC12 (11746883_a_at) / Fold change /veh ABCC12 (11746883_a_at) / RFU TMEM136 (11760407_x_at) / Fold change /veh TMEM136 (11760407_x_at) / RFU CLDN22 /// WWC2 (11732394_at) / Fold change /veh CLDN22 /// WWC2 (11732394_at) / RFU HLA-DPB1 (11760878_x_at) / Fold change /veh HLA-DPB1 (11760878_x_at) / RFU SPINT1 (11716480_a_at) / Fold change /veh SPINT1 (11716480_a_at) / RFU GAP43 (11754022_s_at) / Fold change /veh GAP43 (11754022_s_at) / RFU A4GNT (11735810_at) / Fold change /veh A4GNT (11735810_at) / RFU PRB3 (11715151_x_at) / Fold change /veh PRB3 (11715151_x_at) / RFU TUBB4B (11761932_at) / Fold change /veh TUBB4B (11761932_at) / RFU CAPN14 (11732068_a_at) / Fold change /veh CAPN14 (11732068_a_at) / RFU TMCC2 (11721928_a_at) / Fold change /veh TMCC2 (11721928_a_at) / RFU IRGQ (11745062_a_at) / Fold change /veh IRGQ (11745062_a_at) / RFU FAM174B (11720279_a_at) / Fold change /veh FAM174B (11720279_a_at) / RFU TMPRSS4 (11748680_a_at) / Fold change /veh TMPRSS4 (11748680_a_at) / RFU FAM212B (11763350_a_at) / Fold change /veh FAM212B (11763350_a_at) / RFU PLEKHG5 (11743358_a_at) / Fold change /veh PLEKHG5 (11743358_a_at) / RFU ZSCAN30 (11745921_a_at) / Fold change /veh ZSCAN30 (11745921_a_at) / RFU CMKLR1 (11741424_a_at) / Fold change /veh CMKLR1 (11741424_a_at) / RFU LOC101060620 /// MAPK8IP1 (11723275_at) / Fold change /veh LOC101060620 /// MAPK8IP1 (11723275_at) / RFU SPTSSB (11747773_x_at) / Fold change /veh SPTSSB (11747773_x_at) / RFU PRSS12 (11739890_at) / Fold change /veh PRSS12 (11739890_at) / RFU BIN1 (11741810_x_at) / Fold change /veh BIN1 (11741810_x_at) / RFU WNT11 (11732464_a_at) / Fold change /veh WNT11 (11732464_a_at) / RFU C10orf10 (11716521_a_at) / Fold change /veh C10orf10 (11716521_a_at) / RFU C5orf56 (11738089_at) / Fold change /veh C5orf56 (11738089_at) / RFU CYB561 (11721691_x_at) / Fold change /veh CYB561 (11721691_x_at) / RFU ANKRD19P (11752326_a_at) / Fold change /veh ANKRD19P (11752326_a_at) / RFU OR2T12 /// OR2T33 /// OR2T8 (11738714_s_at) / Fold change /veh OR2T12 /// OR2T33 /// OR2T8 (11738714_s_at) / RFU VCAN (11748164_a_at) / Fold change /veh VCAN (11748164_a_at) / RFU JSRP1 (11732532_at) / Fold change /veh JSRP1 (11732532_at) / RFU KRTAP10-11 (11738290_x_at) / Fold change /veh KRTAP10-11 (11738290_x_at) / RFU MYO3A (11730013_a_at) / Fold change /veh MYO3A (11730013_a_at) / RFU EBF3 (11725865_a_at) / Fold change /veh EBF3 (11725865_a_at) / RFU CAMK2N1 (11719241_x_at) / Fold change /veh CAMK2N1 (11719241_x_at) / RFU C5orf56 (11738088_a_at) / Fold change /veh C5orf56 (11738088_a_at) / RFU OLFML3 (11715873_a_at) / Fold change /veh OLFML3 (11715873_a_at) / RFU LOC100653217 /// NTM (11731650_a_at) / Fold change /veh LOC100653217 /// NTM (11731650_a_at) / RFU MAPK11 (11762145_a_at) / Fold change /veh MAPK11 (11762145_a_at) / RFU FIZ1 (11724087_x_at) / Fold change /veh FIZ1 (11724087_x_at) / RFU OASL (11726364_x_at) / Fold change /veh OASL (11726364_x_at) / RFU SOX15 (11748057_x_at) / Fold change /veh SOX15 (11748057_x_at) / RFU CD79A (11719716_a_at) / Fold change /veh CD79A (11719716_a_at) / RFU HIST1H1D (11736915_at) / Fold change /veh HIST1H1D (11736915_at) / RFU CASKIN2 (11723855_a_at) / Fold change /veh CASKIN2 (11723855_a_at) / RFU LOC730098 (11760151_x_at) / Fold change /veh LOC730098 (11760151_x_at) / RFU OR4N2 (11742367_at) / Fold change /veh OR4N2 (11742367_at) / RFU PRRT2 (11749266_a_at) / Fold change /veh PRRT2 (11749266_a_at) / RFU SNX32 (11753110_a_at) / Fold change /veh SNX32 (11753110_a_at) / RFU CDHR5 (11726645_a_at) / Fold change /veh CDHR5 (11726645_a_at) / RFU RCAN1 (11760418_a_at) / Fold change /veh RCAN1 (11760418_a_at) / RFU FAM167A (11723789_a_at) / Fold change /veh FAM167A (11723789_a_at) / RFU FAM26E (11764081_at) / Fold change /veh FAM26E (11764081_at) / RFU ISYNA1 (11749810_s_at) / Fold change /veh ISYNA1 (11749810_s_at) / RFU ACY1 (11761880_at) / Fold change /veh ACY1 (11761880_at) / RFU 11764098_at / Fold change /veh 11764098_at / RFU SAMD14 (11745864_x_at) / Fold change /veh SAMD14 (11745864_x_at) / RFU NPB (11741838_a_at) / Fold change /veh NPB (11741838_a_at) / RFU TMPRSS6 (11731388_a_at) / Fold change /veh TMPRSS6 (11731388_a_at) / RFU KRTAP10-2 (11738614_at) / Fold change /veh KRTAP10-2 (11738614_at) / RFU ARHGAP8 /// PRR5-ARHGAP8 (11727945_x_at) / Fold change /veh ARHGAP8 /// PRR5-ARHGAP8 (11727945_x_at) / RFU KRTAP5-7 /// NADSYN1 (11734609_at) / Fold change /veh KRTAP5-7 /// NADSYN1 (11734609_at) / RFU RASL12 (11751679_a_at) / Fold change /veh RASL12 (11751679_a_at) / RFU CDKN2B (11736163_a_at) / Fold change /veh CDKN2B (11736163_a_at) / RFU PRF1 (11729649_at) / Fold change /veh PRF1 (11729649_at) / RFU, ZNF638 /// ZNF638-IT1 / Fold change vs veh, ZNF638 /// ZNF638-IT1 / RFU, PANK3 / Fold change vs veh, PANK3 / RFU, SH3YL1 / Fold change vs veh, SH3YL1 / RFU, ZEB2 / Fold change vs veh, ZEB2 / RFU, NRIP1 / Fold change vs veh, NRIP1 / RFU, PTTG1IP / Fold change vs veh, PTTG1IP / RFU, CAPN2 / Fold change vs veh, CAPN2 / RFU, MED14 / Fold change vs veh, MED14 / RFU, SNORA58 / Fold change vs veh, SNORA58 / RFU, C1orf63 / Fold change vs veh, C1orf63 / RFU, LRRFIP1 / Fold change vs veh, LRRFIP1 / RFU, NDUFAF7 / Fold change vs veh, NDUFAF7 / RFU, SLC12A2 / Fold change vs veh, SLC12A2 / RFU, IBTK / Fold change vs veh, IBTK / RFU, ESF1 / Fold change vs veh, ESF1 / Fold change vs veh, TMEM50B / RFU, TAOK1 / Fold change vs veh, TAOK1 / RFU, ACBD3 / Fold change vs veh, ACBD3 / RFU, TMA16 / Fold change vs veh, TMA16 / RFU, RWDD3 / Fold change vs veh, RWDD3 / RFU, BCAT1 / Fold change vs veh, BCAT1 / RFU, EDEM3 / Fold change vs veh, EDEM3 / RFU, TMEM33 / Fold change vs veh, TMEM33 / RFU, WDR75 / Fold change vs veh, WDR75 / RFU, AHCTF1 / Fold change vs veh, AHCTF1 / RFU, TFRC / Fold change vs veh, TFRC / RFU, ZDHHC17 / Fold change vs veh, ZDHHC17 / RFU, NOM1 / Fold change vs veh, NOM1 / RFU, ARL8B / Fold change vs veh, ARL8B / RFU, ZBTB11 / Fold change vs veh, ZBTB11 / RFU, TAMM41 / Fold change vs veh, TAMM41 / RFU, KIAA1704 /// LOC100996395 / Fold change vs veh, KIAA1704 /// LOC100996395 / RFU, ING1 / Fold change vs veh, ING1 / RFU, TRMT61B / Fold change vs veh, TRMT61B / RFU, FUBP3 / Fold change vs veh, FUBP3 / RFU, TP53 / Fold change vs veh, TP53 / RFU, TNKS2 / Fold change vs veh, TNKS2 / RFU, ZFP14 / Fold change vs veh, ZFP14 / RFU, ACTR2 / Fold change vs veh, ACTR2 / RFU, PPP3R1 / Fold change vs veh, PPP3R1 / RFU, PIK3R1 / Fold change vs veh, PIK3R1 / RFU, HNRNPA1 / Fold change vs veh, HNRNPA1 / RFU, RNF170 / Fold change vs veh, RNF170 / RFU, ZNF28 / Fold change vs veh, ZNF28 / RFU, RNGTT / Fold change vs veh, RNGTT / RFU, OGT / Fold change vs veh, OGT / RFU, BRD1 / Fold change vs veh, BRD1 / RFU, MARS / Fold change vs veh, MARS / RFU, ZNF655 / Fold change vs veh, ZNF655 / RFU, FAHD1 / Fold change vs veh, FAHD1 / RFU, BDP1 / Fold change vs veh, BDP1 / RFU, LRRCC1 / Fold change vs veh, LRRCC1 / RFU, ARID1A / Fold change vs veh, ARID1A / RFU, ZNF146 / Fold change vs veh, ZNF146 / RFU, ZNF330 / Fold change vs veh, ZNF330 / RFU, GPN3 / Fold change vs veh, GPN3 / RFU, C9orf123 / Fold change vs veh, C9orf123 / RFU, N4BP2L2 / Fold change vs veh, N4BP2L2 / RFU, ARFIP1 / Fold change vs veh, ARFIP1 / RFU, FAM179B / Fold change vs veh, FAM179B / RFU, BCL10 / Fold change vs veh, BCL10 / RFU, UHRF1BP1L / Fold change vs veh, UHRF1BP1L / RFU, BET1 / Fold change vs veh, BET1 / RFU, CNOT2 / Fold change vs veh, CNOT2 / RFU, ZNF268 / Fold change vs veh, ZNF268 / Fold change vs veh, ZNF507 / RFU, DGCR2 / Fold change vs veh, DGCR2 / RFU, WDSUB1 / Fold change vs veh, WDSUB1 / Fold change vs veh, HSP90B1 /// MIR3652 / RFU, ADSS / Fold change vs veh, ADSS / RFU, GK / Fold change vs veh, GK / RFU, ZNF148 / Fold change vs veh, ZNF148 / RFU, TAF9 / Fold change vs veh, TAF9 / RFU, SLC1A5 / Fold change vs veh, SLC1A5 / RFU, SLMO2 / Fold change vs veh, SLMO2 / RFU, ABCC4 / Fold change vs veh, ABCC4 / RFU, LOC101060439 /// RAP1B / Fold change vs veh, LOC101060439 /// RAP1B / RFU, RFX7 / Fold change vs veh, RFX7 / RFU, GTPBP10 / Fold change vs veh, GTPBP10 / RFU, CNEP1R1 / Fold change vs veh, CNEP1R1 / RFU, BIVM-ERCC5 /// ERCC5 / Fold change vs veh, BIVM-ERCC5 /// ERCC5 / RFU, ILF3 / Fold change vs veh, ILF3 / RFU 11762660_at / Fold change /veh 11762660_at / RFU VCAN (11757783_s_at) / Fold change /veh VCAN (11757783_s_at) / RFU DDX43 (11728927_at) / Fold change /veh DDX43 (11728927_at) / RFU KRT8 (11758188_x_at) / Fold change /veh KRT8 (11758188_x_at) / RFU NKD1 (11759106_at) / Fold change /veh NKD1 (11759106_at) / RFU SRD5A1 (11742802_a_at) / Fold change /veh SRD5A1 (11742802_a_at) / RFU TPSAB1 /// TPSB2 (11721975_s_at) / Fold change /veh TPSAB1 /// TPSB2 (11721975_s_at) / RFU GSTM3 (11746129_a_at) / Fold change /veh GSTM3 (11746129_a_at) / RFU IL23R (11737362_x_at) / Fold change /veh IL23R (11737362_x_at) / RFU TMEM51 (11727254_a_at) / Fold change /veh TMEM51 (11727254_a_at) / RFU PIWIL2 (11732686_x_at) / Fold change /veh PIWIL2 (11732686_x_at) / RFU ORM1 (11744905_x_at) / Fold change /veh ORM1 (11744905_x_at) / RFU CCDC152 (11743942_at) / Fold change /veh CCDC152 (11743942_at) / RFU ECM1 (11717891_a_at) / Fold change /veh ECM1 (11717891_a_at) / RFU IL23R (11748794_a_at) / Fold change /veh IL23R (11748794_a_at) / RFU TNFAIP8L3 (11732012_x_at) / Fold change /veh TNFAIP8L3 (11732012_x_at) / RFU MBOAT4 (11741988_at) / Fold change /veh MBOAT4 (11741988_at) / RFU 11764193_at / Fold change /veh 11764193_at / RFU TMEM53 (11763286_at) / Fold change /veh TMEM53 (11763286_at) / RFU MAGEB2 (11727129_at) / Fold change /veh MAGEB2 (11727129_at) / RFU TMEM200A (11744735_a_at) / Fold change /veh TMEM200A (11744735_a_at) / RFU CCDC152 (11751479_a_at) / Fold change /veh CCDC152 (11751479_a_at) / RFU FAM211A (11726209_a_at) / Fold change /veh FAM211A (11726209_a_at) / RFU RGS16 (11746705_a_at) / Fold change /veh RGS16 (11746705_a_at) / RFU VCAN (11755009_s_at) / Fold change /veh VCAN (11755009_s_at) / RFU RHOB (11743442_s_at) / Fold change /veh RHOB (11743442_s_at) / RFU RGS16 (11720943_a_at) / Fold change /veh RGS16 (11720943_a_at) / RFU RGS16 (11720944_at) / Fold change /veh RGS16 (11720944_at) / RFU, VPS4B / Fold change vs veh, VPS4B / RFU, CREB1 / Fold change vs veh, CREB1 / RFU, DNAJC13 / Fold change vs veh, DNAJC13 / RFU, GNAQ / Fold change vs veh, GNAQ / RFU, CDK5R1 / Fold change vs veh, CDK5R1 / RFU, ZRANB3 / Fold change vs veh, ZRANB3 / RFU, CUL4A / Fold change vs veh, CUL4A / RFU, CCNY / Fold change vs veh, CCNY / RFU, UFL1 / Fold change vs veh, UFL1 / RFU, COG3 / Fold change vs veh, COG3 / RFU, DIAPH2 / Fold change vs veh, DIAPH2 / RFU, SKA2 / Fold change vs veh, SKA2 / RFU, AFF3 / Fold change vs veh, AFF3 / RFU, LMF1 / Fold change vs veh, LMF1 / RFU, IPO11 / Fold change vs veh, IPO11 / RFU, DFFB / Fold change vs veh, DFFB / RFU, FOXP1 / Fold change vs veh, FOXP1 / RFU, CARD8 / Fold change vs veh, CARD8 / RFU, STRN3 / Fold change vs veh, STRN3 / RFU, ADK / Fold change vs veh, ADK / RFU, RASSF2 / Fold change vs veh, RASSF2 / RFU, WIPF1 / Fold change vs veh, WIPF1 / RFU, LARP1B / Fold change vs veh, LARP1B / RFU, RASA1 / Fold change vs veh, RASA1 / RFU, RB1 / Fold change vs veh, RB1 / RFU, PPFIA1 / Fold change vs veh, PPFIA1 / RFU, MAT2A / Fold change vs veh, MAT2A / RFU, CCT5 / Fold change vs veh, CCT5 / RFU, WDR92 / Fold change vs veh, WDR92 / RFU, CUX1 / Fold change vs veh, CUX1 / RFU, TTC7A / Fold change vs veh, TTC7A / RFU, TMEM135 / Fold change vs veh, TMEM135 / RFU, DEPTOR / Fold change vs veh, DEPTOR / RFU, CPM / Fold change vs veh, CPM / RFU, DNAJB6 / Fold change vs veh, DNAJB6 / RFU, CACNA2D3 / Fold change vs veh, CACNA2D3 / RFU, DTX4 / Fold change vs veh, DTX4 / RFU, TFCP2 / Fold change vs veh, TFCP2 / RFU, GMCL1 /// GMCL1P1 / Fold change vs veh, GMCL1 /// GMCL1P1 / RFU, AEBP2 / Fold change vs veh, AEBP2 / RFU, SNHG1 /// SNORD22 /// SNORD25 /// SNORD26 /// SNORD27 /// SNORD28 /// SNORD29 /// SNORD31 / Fold change vs veh, SNHG1 /// SNORD22 /// SNORD25 /// SNORD26 /// SNORD27 /// SNORD28 /// SNORD29 /// SNORD31 / Fold change (Aza/veh), C12orf56 (ProbeSet 11735607_a_at) / Fold change (ACY-1035/veh), C12orf56 (ProbeSet 11735607_a_at) / Fold change (Aza/veh), FGFR1OP (ProbeSet 11751329_s_at) / Fold change (ACY-1035/veh), FGFR1OP (ProbeSet 11751329_s_at) / Fold change (Aza/veh), VPS36 (ProbeSet 11739960_a_at) / Fold change (ACY-1035/veh), VPS36 (ProbeSet 11739960_a_at) / RFU SYPL1 (11715823_x_at) / Fold change /veh SYPL1 (11715823_x_at) / RFU IGFBP7 (11715501_s_at) / Fold change /veh IGFBP7 (11715501_s_at) / RFU REEP3 (11722064_at) / Fold change /veh REEP3 (11722064_at) / RFU IGLL1 (11728026_x_at) / Fold change /veh IGLL1 (11728026_x_at): dose or concentration left out as unconfirmed
Conditions: ProbeSet 11763895_x_at; LIST B

Nc1ccc(-c2cccs2)cc1NC(=O)c1ccc2c(c1)cc(C1CC1)n2CCN1CCOCC1 [ACY-1035]
RFU, SNORA58: 14.97 RFU
